Laboratory results as given in patent US12180183B2, “Water-soluble fluorescent probe and nanoparticals with aggregation-induced emission effect for ovarian cancer and preparation method and use thereof” (HUNAN TARGETING DETECTION TECHNOLOGY CO., LTD, priority 2018, dated 2024).

Assays:
[1] = Selectivity of the fluorescent nanoprobe for detecting lysophosphatidic acid; details: compound 3 10 μM, excitation 400 nm
Description: The prepared fluorescent molecular probe solution was used for evaluating the selectivity of the probe to lysophosphatidic acid. An excitation wavelength of the nanoprobe was 400 nm. The concentration of the compound 3 in the system was 10 μM. Lysophosphatidic acid with a final concentration of 50 μM and L-proline, glycerin, sodium phosphate, magnesium sulfate, sodium acetate, sodium nitrate, sodium fluoride, glucose, urea, and lysophosphatidyl choline (LPC) with a final concentration of 1 mM were respectively added into the system. After fully mixing, the systems were incubated for 1 min at room temperature. Then fluorescence emission spectra thereof were measured and the fluorescence emission intensities at 557 nm were recorded.

[2] = Dynamic light scattering of the self-assembled probe nanoparticles; assay type: physicochemical; details: compound 3 20 μM in phosphate buffer solution pH=7.4, dynamic light scattering
Description: (§1) 40 μL of compound 3 (1 mM) in a phosphate buffer solution was taken by using a pipette and placed in an ep-tube. 1960 μL of a phosphate buffer solution (pH=7.4) was added into the ep-tube under an ultrasonic condition so that the final concentration of compound 3 was 20 μM. The mixture was stirred for 30 min under room temperature to generate opalescence. In order to verify nano-aggregation behavior thereof, an average particle size thereof measured by a dynamic light scattering experiment was 600 nm, as shown in FIG. 1.

[3] = Linear relationship between fluorescence intensity of the probe nanoparticles and lysophosphatidic acid concentration; details: compound 3 20 μM, phosphate buffer pH 7.4, incubated 1 min at room temperature
Description: as §1
A series of different volumes of the stock solution of lysophosphatidic acid in the phosphate buffer solution were respectively added to the system prepared in Example 2, so that the final concentrations of lysophosphatidic acid respectively were 0 μM, 0.2 μM, 0.4 μM, 0.8 μM, 1.0 μM, 1.2 μM, 1.4 μM, 1.8 μM, 2.0 μM, 4.0 μM, 8.0 μM, 10.0 μM, 12.0 μM, 14.0 μM, 16.0 μM, 18.0 μM, 20.0 μM, 25.0 μM, 30.0 μM, 33.0 μM. After all of testing solution were prepared, the testing solutions were mixed uniformly with a vortex. After being incubated for 1 min at room temperature, the fluorescence emission intensity thereof at 557 was measured.

- average particle size [2]: 600 nm
SMILES: COc1ccc(-c2nc(-c3cc[n+](CCCCCCCCCCCC[n+]4ccccc4)cc3)n(-c3ccccc3)c2-c2ccc(OC)cc2)cc1 [Compound 3]
- fluorescence emission at 557 nm after addition of lysophosphatidic acid ([1]; lysophosphatidic acid 50 μM, 1 min at room temperature): strong yellow fluorescence
- fluorescence emission at 557 nm after addition of other substances ([1]; L-proline, glycerin, sodium phosphate, magnesium sulfate, sodium acetate, sodium nitrate, sodium fluoride, glucose, urea, LPC each 1 mM): could not be observed to generate yellow fluorescence
- lysophosphatidic acid concentration range with good linear relationship to fluorescence intensity at 557 nm [3]: 0 to 33 µM
